Values of other authors, collected in patent publication US20040235935A1, “Oral pharmaceutical composition containing a statin derivative” (priority 2001, published 2004).
≈ marks a conversion by molar mass, not a printed value. Like-named read-outs stand apart in the source and are kept apart here.

Columns and labels:
[1] = for Vsol = volume of water required to completely dissolve a 20 mg dose: solubility at pH 5
[2] = not given; remark: listed apart in the source
[3] = not given; remark: listed apart in the source
[4] = healthy humans, oral dose 40 mg
[5] = healthy humans, oral dose 20 mg

| Structure (SMILES) | Vsol = volume of water required to completely dissolve a 20 mg dose [1] | Solubility in water ([1]; at pH 5) | pKa | AUC = area under plasma concentration-time curve [3, 5] | Cmax = maximum plasma drug concentration [3, 5] | further results |
| --- | --- | --- | --- | --- | --- | --- |
| CC[C@H](C)C(=O)O[C@H]1C[C@H](O)C=C2C=C[C@H](C)[C@H](CC[C@@H]3C[C@@H](O)CC(=O)O3)[C@H]21 [Pravastatin Lactone] | 111 mL | 0.18 g/L (≈ 443 µM) | – | – | – | – |
| CCC(C)(C)C(=O)O[C@H]1C[C@@H](C)C=C2C=C[C@H](C)[C@H](CC[C@@H](O)C[C@@H](O)CC(=O)O)[C@H]21 [Simvastatin Hydroxy acid] | – | – | 5.5 | – | – | times more readily dissolved in octanol than in water ([2]; from the partition coefficients at pH 7): 126 times; AUC = area under plasma concentration-time curve [3, 4]: 58.1 µg·h/L; Cmax = maximum plasma drug concentration [3, 4]: 58.1 µg/L |
| CC(C)n1c(/C=C/C(O)CC(O)CC(=O)O)c(-c2ccc(F)cc2)c2ccccc21 (stereo not drawn) [Fluvastatin, fluvastatin] | – | – | 5.5 | 167 µg·h/L | 181 µg/L | Solubility in water ([1]; at pH 6): 2 g/L (≈ 4860 µM); Peff = effective membrane permeability ([3]; healthy humans): 0.00024 cm/s; F = bioavailability ([3]; healthy humans, oral): 10-35% |
| CCC(C)C(=O)OC1CC(C)C=C2C=CC(C)C(CCC(O)CC(O)CC(=O)[O-])C21.[Na+] (stereo not drawn) [Lovastatin Hydroxy acid] | – | – | 5.5 | – | – | tmax = time to Cmax ([3]; human, in vivo, po, 20 mg): 2.8 h; fa = fraction of the administered dose absorbed ([3]; in vivo): ˜31% |
| CC[C@H](C)C(=O)O[C@H]1C[C@H](O)C=C2C=C[C@H](C)[C@H](CC[C@@H](O)C[C@@H](O)CC(=O)O)[C@H]21 [Pravastatin Hydroxy acid, pravastatin] | – | 300 g/L (≈ 707000 µM) | 5.5 | 90.2 µg·h/L | 38.4 µg/L | EH = liver extraction ratio ([3]; healthy humans): 45%; fa = fraction of the administered dose absorbed ([3]; healthy humans): ˜34% |
| CC[C@H](C)C(=O)O[C@H]1C[C@@H](C)C=C2C=C[C@H](C)[C@H](CC[C@@H]3C[C@@H](O)CC(=O)O3)[C@H]21 [Lovastatin Lactone, lovastatin] | 15 385 ml | 0.0013 g/L (≈ 3.21 µM) | – | – | – | D = partition coefficient (logarithm of partition ratio between octanol and water at pH 7) ([2]; pH 7): 4.3 |
